This is an account of results in patent publication US11999727B2 (Tango Therapeutics, Inc., priority 2020, dated 2024).

Test [1] has as its system HAP1 MTAP-deleted cell line. As to the kind of experiment: SDMA in-cell western assay, HAP1 MTAP-deleted. In kind it is cell-based. The conditions noted are these: for pIC50: Homo sapiens; for MTAP intact/deleted ratio: IC50 ratio HAP1 MTAP-intact vs HAP1 MTAP-deleted, SDMA in-cell western. In short, it runs like this: (§1)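 MTAP-null vs endogenous-MTAP HAP1 isogenic cells; in-cell western SDMA readout; IC50 per line.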

The target in test [2] is T1, PRMT5 (Homo sapiens, UniProt O14744).
T1 construct: purchased Viva (custom protein)
T1 sequence (O14744 whole entry): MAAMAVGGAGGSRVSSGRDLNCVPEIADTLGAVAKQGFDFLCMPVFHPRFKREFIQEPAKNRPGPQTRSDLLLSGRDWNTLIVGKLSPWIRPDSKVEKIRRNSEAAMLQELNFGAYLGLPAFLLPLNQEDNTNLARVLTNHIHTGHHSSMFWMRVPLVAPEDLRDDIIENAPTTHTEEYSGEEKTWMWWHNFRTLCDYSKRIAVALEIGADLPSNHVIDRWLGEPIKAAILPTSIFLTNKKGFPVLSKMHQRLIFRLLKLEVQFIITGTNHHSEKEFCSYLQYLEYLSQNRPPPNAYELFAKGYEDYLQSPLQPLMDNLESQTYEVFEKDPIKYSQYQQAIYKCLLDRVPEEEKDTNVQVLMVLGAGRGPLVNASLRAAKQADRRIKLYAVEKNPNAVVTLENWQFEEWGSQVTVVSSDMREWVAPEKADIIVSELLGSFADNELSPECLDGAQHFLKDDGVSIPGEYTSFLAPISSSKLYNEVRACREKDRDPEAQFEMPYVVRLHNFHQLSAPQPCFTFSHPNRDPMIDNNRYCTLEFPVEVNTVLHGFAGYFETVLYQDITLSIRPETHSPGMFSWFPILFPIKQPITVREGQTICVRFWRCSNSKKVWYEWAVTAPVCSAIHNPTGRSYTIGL
T1 sequence (Q9BQA1 whole entry partner): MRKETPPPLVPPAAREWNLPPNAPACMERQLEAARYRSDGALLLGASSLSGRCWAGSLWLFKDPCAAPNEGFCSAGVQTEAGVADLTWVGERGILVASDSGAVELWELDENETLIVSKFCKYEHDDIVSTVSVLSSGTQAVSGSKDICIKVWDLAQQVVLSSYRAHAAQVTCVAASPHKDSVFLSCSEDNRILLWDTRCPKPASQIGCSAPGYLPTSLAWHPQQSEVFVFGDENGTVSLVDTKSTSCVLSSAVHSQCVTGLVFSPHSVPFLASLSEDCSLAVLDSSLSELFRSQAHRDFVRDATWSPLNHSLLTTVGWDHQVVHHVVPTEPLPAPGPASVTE
As to the kind of experiment: PRMT5 biochemical IC50 assay with SAM as cofactor. As to conditions: PRMT5, SAM as cofactor; read-out: SAM IC50.

For test [3], the target named is T1, PRMT5. As to the kind of experiment: PRMT5 biochemical IC50 assay with no cofactor. As to conditions: PRMT5, no cofactor; read-out: No Cofactor/rel IC50. An excerpt:
Table 1 indicates IC50 values (μM) against PRMT5 for exemplary compounds in the presence of SAM as cofactor, with no cofactor, and with MTA as cofactor, respectively (columns 4-6). […] Ki values can be calculated from the IC50 values as described in the Examples section. As detailed in the Examples section, for the assay performed in the presence of SAM, IC50=Ki×1.5 (Ki=IC50/1.5).

The test system of test [4] is HAP1 MTAP-intact cell line. As to the kind of experiment: SDMA in-cell western assay, HAP1 MTAP-intact. In kind it is cell-based. The conditions noted are these: Homo sapiens. In short, it runs like this:
as §1

The target of test [5] is T1, PRMT5. Put plainly: PRMT5 biochemical IC50 assay with MTA as cofactor. The conditions noted are these: PRMT5, MTA as cofactor; read-out: MTA IC50.
Test [6] has as its system HAP1 MTAP-deleted cell line. As to the kind of experiment: Viability assay, MTAP-deleted cell line. As to conditions: Homo sapiens. In kind it is cell-based. The text has this: Table 1 additionally indicates IC50 values in a viability assay for the MTAP-deleted cell line (column 10), indicating the effect of treatment with compound on cell survival.
Where [7] appears, read: HAP1, SDMA in-cell western, HAP1 MTAP-deleted, read-out: HAP1 MTAP deleted IC50.
The mark [8] stands for this setting: HAP1, SDMA in-cell western, HAP1 MTAP-intact, read-out: MTAP HAP1 intact IC50.
Setting [9] is: HAP1, viability assay, MTAP-deleted cell line, read-out: HAP1 MTAP deleted viability.

pIC50: −log10 of the molar value. Where two headings read alike, the source gives them in different places.

As for `CCc1cc(NC(=O)C(=O)N2C[C@@H](C)CC[C@@H]2c2ccc3sc(-c4cccnc4)nc3c2)cnc1N` [Compound 1200, N-(6-amino-5-ethylpyridin-3-yl)-2-((2R,5S)-5-methyl-2-(2-(pyridin-3-yl)benzo[d]thiazol-5-yl)piperidin-1-yl)-2-oxoacetamide], the pIC50 in test [1] (setting [7]) is above 7.00; in test [2], 6.30 to 7.30; in test [3], above 7.30; in test [4] (setting [8]) it was 6.00 to 7.00; in test [5], above 7.30; in test [6] (setting [9]) it was above 6.00. Further, the MTAP intact/deleted ratio result in test [1] was “A (an IC50 ratio greater than or equal to 10 fold)”.

For the molecule `CCc1cc(NC(=O)C(=O)N2C[C@@H](C)CC[C@@H]2c2ccc3sc([C@H]4CN(C)CCO4)nc3c2)cnc1N` [Compound 1202, N-(6-amino-5-ethyl-3-pyridyl)-2-oxo-2-[(2R,5S)-5-methyl-2-[2-[(2R)-4-methylmorpholin-2-yl]-1,3-benzothiazol-5-yl]-1-piperidyl]acetamide], the pIC50 in test [1] (setting [7]) is above 7.00; in test [2], 6.30 to 7.30; in test [3] it was above 7.30; in test [4] (setting [8]) it was above 7.00; in test [5], above 7.30; in test [6] (setting [9]) it was above 6.00. In test [1], the MTAP intact/deleted ratio result is reported as “A (an IC50 ratio greater than or equal to 10 fold)”.

On to `COc1cc(NC(=O)C(=O)N2C[C@@H](C)CC[C@@H]2c2ccc3sc(C4CCN(C)CC4)nc3c2)cnc1N` [Compound 1203, N-(6-amino-5-methoxypyridin-3-yl)-2-((2R,5)-5-methyl-2-(2-(1-methylpiperidin-4-yl)benzo[d]thiazol-5-yl)piperidin-1-yl)-2-oxoacetamide], for which the pIC50 was above 7.00 in test [1] (setting [7]); above 7.30 in test [2]; above 7.30 in test [3]; above 7.00 in test [4] (setting [8]); above 7.30 in test [5]; above 6.00 in test [6] (setting [9]). The MTAP intact/deleted ratio entry in test [1] was “A (an IC50 ratio greater than or equal to 10 fold)”.

For `CCc1cc(NC(=O)C(=O)N2C[C@@H](C)CC[C@@H]2c2ccc(OCC3CCN(C)CC3)cc2)cnc1N` [Compound 1206], the pIC50 in test [1] (setting [7]) was above 7.00; in test [2], 6.30 to 7.30; in test [3], above 7.30; in test [4] (setting [8]), 6.00 to 7.00; in test [5] it was above 7.30; in test [6] (setting [9]), above 6.00. In test [1], the MTAP intact/deleted ratio result was “A (an IC50 ratio greater than or equal to 10 fold)”.

`CCc1cc(NC(=O)C(=O)N2C[C@@H](C)CC[C@@H]2c2ccc3sc(C45CC(CN(C)C4)C5)nc3c2)cnc1N` [Compound 1212, N-(6-amino-5-ethylpyridin-3-yl)-2-((2R,5S)-5-methyl-2-(2-(3-methyl-3-azabicyclo[3.1.1]heptan-1-yl)benzo[d]thiazol-5-yl)piperidin-1-yl)-2-oxoacetamide]: the pIC50 in test [1] (setting [7]) was above 7.00; in test [2] it was above 7.30; in test [3], above 7.30; in test [4] (setting [8]) it was above 7.00; in test [5], above 7.30; in test [6] (setting [9]), above 6.00. Also, the MTAP intact/deleted ratio entry in test [1] is recorded as “B (an IC50 ratio greater than or equal to 3 fold but lower than 10 fold)”.

In the case of `Cc1cc(NC(=O)C(=O)N2C[C@@H](C)CC[C@@H]2c2ccc3sc(-c4cn(C)cn4)nc3c2)cnc1N` [Compound 1214, N-(6-amino-5-methylpyridin-3-yl)-2-((2R,5S)-5-methyl-2-(2-(1-methyl-1H-imidazol-4-yl)benzo[d]thiazol-5-yl)piperidin-1-yl)-2-oxoacetamide], the pIC50 in test [1] (setting [7]) is above 7.00; in test [2] it was 6.30 to 7.30; in test [3], above 7.30; in test [4] (setting [8]), 6.00 to 7.00; in test [5] it was above 7.30; in test [6] (setting [9]), above 6.00. In test [1], the MTAP intact/deleted ratio entry is recorded as “A (an IC50 ratio greater than or equal to 10 fold)”.

On to `Cc1cc(NC(=O)C(=O)N2C[C@@H](C)CC[C@@H]2c2ccc3sc([C@@H]4CCN(C)C(C)(C)C4)nc3c2)cnc1C` [Compound 1215, N-(5,6-dimethyl-3-pyridyl)-2-oxo-2-[(2R,5S)-5-methyl-2-[2-[(4R)-1,2,2-trimethyl-4-piperidyl]-1,3-benzothiazol-5-yl]-1-piperidyl]acetamide], for which the pIC50 is above 7.00 in test [1] (setting [7]); above 7.30 in test [2]; above 7.30 in test [3]; 6.00 to 7.00 in test [4] (setting [8]); above 7.30 in test [5]; above 6.00 in test [6] (setting [9]). The MTAP intact/deleted ratio result in test [1] is on record as “A (an IC50 ratio greater than or equal to 10 fold)”.

Take `CCc1cc(NC(=O)C(=O)N2C[C@@H](C)CC[C@@H]2c2ccc3sc(C45CCC(CC4)N(C)C5)nc3c2)cnc1N` [Compound 1217]: the pIC50 in test [1] (setting [7]) is above 7.00; in test [2], above 7.30; in test [3] it was above 7.30; in test [4] (setting [8]), above 7.00; in test [5], above 7.30; in test [6] (setting [9]) it was above 6.00. The MTAP intact/deleted ratio result in test [1] is listed as “B (an IC50 ratio greater than or equal to 3 fold but lower than 10 fold)”.

`COc1ncc(NC(=O)C(=O)N2C[C@@H](C)CC[C@@H]2c2ccc3sc(C4CCN(C5CC5)CC4)nc3c2)cc1C(N)=O` [Compound 1219, 5-(2-((2R,5S)-2-(2-(1-cyclopropylpiperidin-4-yl)benzo[d]thiazol-5-yl)-5-methylpiperidin-1-yl)-2-oxoacetamido)-2-methoxynicotinamide]: the pIC50 is above 7.00 in test [1] (setting [7]); 6.30 to 7.30 in test [2]; above 7.30 in test [3]; above 7.00 in test [4] (setting [8]); above 7.30 in test [5]; above 6.00 in test [6] (setting [9]). Besides, the MTAP intact/deleted ratio result in test [1] is “A (an IC50 ratio greater than or equal to 10 fold)”.

Turning to `Cc1cc(NC(=O)C(=O)N2C[C@@H](C)CC[C@@H]2c2ccc3sc(C4CCN(C)CC4)cc3c2)cnc1N` [Compound 1220, N-(6-amino-5-methyl-3-pyridyl)-2-[(2R,5S)-5-methyl-2-[2-(1-methyl-4-piperidyl)benzothiophen-5-yl]-1-piperidyl]-2-oxo-acetamide], the pIC50 in test [1] (setting [7]) is above 7.00; in test [2] it was above 7.30; in test [3], above 7.30; in test [4] (setting [8]), above 7.00; in test [5] it was above 7.30; in test [6] (setting [9]) it was above 6.00. The MTAP intact/deleted ratio entry in test [1] was “B (an IC50 ratio greater than or equal to 3 fold but lower than 10 fold)”.

As to `CCc1cc(NC(=O)C(=O)N2C[C@@H](C)CC[C@@H]2c2ccc3sc(C4CCN(C5COC5)CC4)nc3c2)cnc1N` [Compound 1224, N-(6-amino-5-ethylpyridin-3-yl)-2-((2R,53)-5-methyl-2-(2-(1-(oxetan-3-yl)piperidin-4-yl)benzo[d]thiazol-5-yl)piperidin-1-yl)-2-oxoacetamide], the pIC50 was above 7.00 in test [1] (setting [7]); 6.30 to 7.30 in test [2]; above 7.30 in test [3]; above 7.00 in test [4] (setting [8]); above 7.30 in test [5]; above 6.00 in test [6] (setting [9]). In addition, in test [1], the MTAP intact/deleted ratio result is listed as “A (an IC50 ratio greater than or equal to 10 fold)”.

Turning to `Cc1cc(NC(=O)C(=O)N2C[C@@H](C)CC[C@@H]2c2ccc(N(C)C3CCN(C)CC3)nc2)cnc1N` [Compound 1225, N-(6-Amino-5-methyl-3-pyridyl)-2-[(2R,5S)-5-methyl-2-[6-[methyl-(1-methyl-4-piperidyl)amino]-3-pyridyl]-1-piperidyl]-2-oxo-acetamide], the pIC50 is above 7.00 in test [1] (HAP1, read-out: HAP1 MTAP deleted IC50); above 7.30 in test [2]; above 7.30 in test [3]; 6.00 to 7.00 in test [4] (HAP1, read-out: MTAP HAP1 intact IC50); above 7.30 in test [5]; above 6.00 in test [6] (HAP1, read-out: HAP1 MTAP deleted viability). Also, in test [1], the MTAP intact/deleted ratio entry is given as “A (an IC50 ratio greater than or equal to 10 fold)”.

Take `CCc1cc(NC(=O)C(=O)N2C[C@@H](C)CC[C@@H]2c2cccc(CCN(C)C)c2)cnc1N` [Compound 1226, N-(6-amino-5-ethylpyridin-3-yl)-2-((2R,5S)-2-(3-(2-(dimethylamino)ethyl)phenyl)-5-methylpiperidin-1-yl)-2-oxoacetamide]: the pIC50 is above 7.00 in test [1] (setting [7]); 6.30 to 7.30 in test [2]; above 7.30 in test [3]; 6.00 to 7.00 in test [4] (setting [8]); above 7.30 in test [5]; above 6.00 in test [6] (setting [9]). Besides, the MTAP intact/deleted ratio result in test [1] is recorded as “A (an IC50 ratio greater than or equal to 10 fold)”.

On to `CCc1cc(NC(=O)C(=O)N2C[C@@H](C)CC[C@@H]2c2ccc(CCN(C)C)cc2)cnc1N` [Compound 1228, N-(6-amino-5-ethylpyridin-3-yl)-2-((2R,5S)-2-(4-(2-(dimethylamino)ethyl)phenyl)-5-methylpiperidin-1-yl)-2-oxoacetamide], for which the pIC50 in test [1] (setting [7]) is above 7.00; in test [2], 6.30 to 7.30; in test [3], above 7.30; in test [4] (setting [8]), 6.00 to 7.00; in test [5], above 7.30; in test [6] (setting [9]), above 6.00. The MTAP intact/deleted ratio result in test [1] is “A (an IC50 ratio greater than or equal to 10 fold)”.
